How the values were obtained:
HRG receptor = assay: Structure-activity relationship of rifamycin analogues as heregulin antagonists (FIGS. 6 and 7); type: cell-based; conditions: substituent at C9 position
Protocol: Replacement of residues 177 and 178 by an acetyl group decreases the binding affinity of HRG to its receptor by more than 50-fold (Barbacci et al., J. Bio. Chem. 1995; 270(16)9585-9).
The structure-activity relationships of rifamycin analogues also indicates the importance of this region (FIGS. 6 and 7).
Inhibition of receptor binding--To investigate whether a compound can inhibit binding between HRG and its receptors, binding assays were performed using ^125 I labeled EGF domain of HRG-β1 (HED-β1). The binding affinity of iodine-labeled HED-β1 in T47D or MDA-453 cells was pre-determined. Unlabeled compounds were co-incubatedwith the radiolabeled ligand for 2 hours at 4° C., and the cells were washed 3 times with an ice-cold binding buffer. The labeled cells were lysed, and counted in a gamma-counter. Compounds that displaced more than 50% of labeled HED-β1 from the HRG-receptors were then re-examined in a dose-dependent manner.
(§1) The ability of compounds of the invention to block HRG-induced phosphorylation was tested by co-incubation with 10 nM HRG (maximal induction).

[1] = test system: EGF-mediated signaling pathway (MDA-468 cells); assay: Specificity: incubation with EGF in EGFR overexpressing cell line MDA-468; type: cell-based
[2] = test system: HRG-induced tyrosine phosphorylation (MDA-453 cells); assay: Inhibition of HRG-induced phosphorylation, dose dependence in MDA-453 cells; type: cell-based; conditions: 10 nM HRG
Protocol: as §1

32D cells = assay: IL-3 stimulated (HRG-independent) growth, 32D; type: cell-based, murine
Description: (§2) Inhibition of HRG-dependent cell proliferation--Since most human cancer cells express more than one of the erbB receptors and different heterodimerization might alter the binding affinity and/or internalization, it is difficult to define the exact correlation of the receptor expression and the antagonist activity of the small molecules. To overcome this difficulty, a 32D cell (murine, hematopoietic) model system, in which the 32D cells were transfected with erbB4 receptor, can be utilized. […] 32t cells transfected with erbB-4 will proliferate in the presence of either HRG or IL-3. With this 32D cell model system, compounds of the invention can be tested for their antagonist activity and specificity in both HRG-dependent and HRG-independent growth.

32D/erbB-4 cells [3] = assay: HRG-dependent cell proliferation, 32D/erbB-4; type: cell-based, murine
Description: as §2

32D/erbB-4 cells [4] = assay: IL-3 stimulated (HRG-independent) growth, 32D/erbB-4; type: cell-based, murine
Description: as §2

Row | antagonist activity (structure-activity, FIGS. 6 and 7) (HRG receptor) | SMILES | effect on EGF-mediated signaling pathway [1] | inhibition of HRG-induced phosphorylation [2] | inhibition of IL-3 stimulated growth (32D cells) | HRG-dependent cell growth inhibition (32D/erbB-4 cells [3]) | inhibition of IL-3 stimulated growth (32D/erbB-4 cells [4])
1 | fairly good activities | COC1C=COC2(C)Oc3c(C)c(O)c4c(O)c(c(C=NN5CCCCCCCCCCCCCCCCC5)c(O)c4c3C2=O)NC(=O)C(C)=CC=CC(C)C(O)C(C)C(O)C(C)C(OC(C)=O)C1C (stereo not drawn) [Compound A4] | – | – | – | – | –
2 | fairly good activities | COC1C=COC2(C)Oc3c(C)c(O)c4c(O)c(c(C=NN(C)C56CC7CC(CC(C7)C5)C6)c(O)c4c3C2=O)NC(=O)C(C)=CC=CC(C)C(O)C(C)C(O)C(C)C(OC(C)=O)C1C (stereo not drawn) [Compound A3] | no or very little effect | dose-dependent inhibition | – | – | –
3 | – | COC1C=COC2(C)Oc3c(C)c(O)c4c(O)c(c(C=NN5C(C)CN(Cc6cccc(O)c6)CC5C)c(O)c4c3C2=O)NC(=O)C(C)=CC=CC(C)C(O)C(C)C(O)C(C)C(OC(C)=O)C1C (stereo not drawn) [Compound A1] | no or very little effect | dose-dependent inhibition | not IL-3 stimulated growth | inhibit only the HRG-dependent cell growth | not IL-3 stimulated growth

— patent US6143740A, “Heregulin antagonists and methods for their use” (Georgetown University, priority 1999, dated 2000)
